Laboratory results taken from patent US20230117470A1, “SUBSTITUTED PYRAZOLE COMPOUNDS AS TOLL RECEPTOR INHIBITORS” (BRISTOL-MYERS SQUIBB COMPANY, priority 2019, published 2023).

Biological target: T1, human TLR7 (Homo sapiens, UniProt Q9NYK1)
T1 construct: host or cells: HEK-Blue cells
T1 sequence (Q9NYK1 27-1049): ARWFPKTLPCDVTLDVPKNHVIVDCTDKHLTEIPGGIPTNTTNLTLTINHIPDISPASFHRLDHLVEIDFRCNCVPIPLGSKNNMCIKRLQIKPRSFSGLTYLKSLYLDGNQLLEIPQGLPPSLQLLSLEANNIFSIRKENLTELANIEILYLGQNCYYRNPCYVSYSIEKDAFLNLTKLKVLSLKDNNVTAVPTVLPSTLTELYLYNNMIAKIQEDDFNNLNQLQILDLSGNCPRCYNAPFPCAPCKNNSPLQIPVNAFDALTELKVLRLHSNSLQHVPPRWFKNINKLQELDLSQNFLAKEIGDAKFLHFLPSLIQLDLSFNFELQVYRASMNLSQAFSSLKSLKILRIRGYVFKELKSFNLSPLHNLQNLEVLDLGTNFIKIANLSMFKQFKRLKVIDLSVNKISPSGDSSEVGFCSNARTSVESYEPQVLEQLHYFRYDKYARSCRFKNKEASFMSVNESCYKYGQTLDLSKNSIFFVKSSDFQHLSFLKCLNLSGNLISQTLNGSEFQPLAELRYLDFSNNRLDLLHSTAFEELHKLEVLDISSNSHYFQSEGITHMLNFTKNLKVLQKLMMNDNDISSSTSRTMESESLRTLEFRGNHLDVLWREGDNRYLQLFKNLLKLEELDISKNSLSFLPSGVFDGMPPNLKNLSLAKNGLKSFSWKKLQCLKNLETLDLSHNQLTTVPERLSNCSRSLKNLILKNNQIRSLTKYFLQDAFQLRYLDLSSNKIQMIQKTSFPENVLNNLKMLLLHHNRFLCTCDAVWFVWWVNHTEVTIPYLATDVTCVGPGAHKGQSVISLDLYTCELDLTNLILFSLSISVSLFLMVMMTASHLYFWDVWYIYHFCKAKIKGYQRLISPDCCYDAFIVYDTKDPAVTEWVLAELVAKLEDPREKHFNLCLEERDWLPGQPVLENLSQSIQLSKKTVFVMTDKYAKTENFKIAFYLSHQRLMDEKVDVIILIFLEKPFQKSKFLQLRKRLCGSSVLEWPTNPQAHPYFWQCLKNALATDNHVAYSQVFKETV
Assay: TLR7 inhibition reporter assay (HEK-Blue cells, SEAP reporter, gardiquimod stimulation)
Type: cell-based
Conditions: HEK-Blue cells overexpressing human TLR7, SEAP reporter, gardiquimod 7.5 μM
Procedure: (§1) TLR7/8/9 Inhibition Reporter Assays
(§2) HEK-Blue™-cells (Invivogen) overexpressing human TLR7, TLR8 or TLR9 receptors were used for screening inhibitors of these receptors using an inducible SEAP (secreted embryonic alkaline phosphatase) reporter gene under the control of the IFN-β minimal promoter fused to five NF-κB and AP-1-binding sites. Briefly, cells are seeded into Greiner 384 well plates (15000 cells per well for TLR7, 20,000 for TLR8 and 25,000 for TLR9) and then treated with test compounds in DMSO to yield a final dose response concentration range of 0.05 nM-50 μM. After a 30 minute compound pre-treatment at room temperature, the cells are then stimulated with a TLR7 ligand (gardiquimod at a final concentration of 7.5 μM), TLR8 ligand (R848 at a final concentration of 15.9 μM) or TLR9 ligand (ODN2006 at a final concentration of 5 nM) to activate NF-κB and AP-1 which induce the production of SLA After a 22 hour incubation at 37° C., […], SEAP levels are determined with the addition of HEK-Blue™ Detection reagent (Invivogen), a cell culture medium that allows for detection of SLAP, according to manufacturer's specifications. The percent inhibition is determined as the % reduction in the HEK-Blue signal present in wells treated with agonist plus DMSO alone compared to wells treated with a known inhibitor.

| Compound | IC50 |
| --- | --- |
| COCC(C)N[C@H]1CC[C@H](NC(=O)c2n[nH]c(-c3cc(C)c4ncnn4c3)c2C(C)C)CC1 (stereo partly drawn) [Example 146] | 19.7 nM |
| Cc1cc(-c2[nH]nc(-c3ccncc3)c2C(C)C)cn2ncnc12 [Example 223] | 8.65 nM |
| Cc1cc(-c2[nH]nc(C(=O)N[C@H]3CCCN(C)C3)c2C(C)C)cn2ncnc12 [Example 162] | 2.6 nM |
| Cc1cc(-c2[nH]nc(C(=O)NC3CCN(CC4CCOCC4)CC3)c2CC(F)(F)F)cn2ncnc12 [Example 204] | 1.5 nM |
| Cc1cc(-c2[nH]nc(C(=O)NC3CCC(NCC(C)(C)C)CC3)c2C(C)C)cn2ncnc12 (stereo not drawn) [Example 126] | 0.98 nM |
| Cc1cc(-c2[nH]nc(C(=O)N3CC4CNCC4C3)c2C(C)C)cn2ncnc12 (stereo not drawn) [Example 59] | 5.83 nM |
| Cc1cc(-c2[nH]nc(-c3ncc4c(n3)CCNC4)c2C(C)C)cn2ncnc12 [Example 222] | 0.75 nM |
| COc1cc(-c2[nH]nc(-c3nc4c(s3)CNCC4)c2C(C)C)cn2ncnc12 [Example 220] | 1.4 nM |

Second part, the molecule after the results:

| IC50 | Compound |
| --- | --- |
| 12.9 nM | COc1cc(-c2[nH]nc(-c3ccc(C4CN(C)C4)cc3)c2C(C)C)cn2ncnc12 [Example 328] |
| 19 nM | CCN1CC(c2ccc(-c3n[nH]c(-c4cc(C)c5ncnn5c4)c3C(C)C)cc2)C1 [Example 325] |
| 0.18 nM | COc1cc(-c2[nH]nc(-c3ccc(C4CCNCC4)cc3)c2C(C)C)cn2ncnc12 [compound 308] |
| 23.8 nM | COc1cc(-c2[nH]nc(-c3nc4c(s3)CN(C)CC4)c2C(C)C)cn2ncnc12 [Example 262] |

Biological target: T2, human TLR9 (Homo sapiens, UniProt Q9NR96)
T2 construct: host or cells: HEK-Blue cells
T2 sequence (Q9NR96 26-1032): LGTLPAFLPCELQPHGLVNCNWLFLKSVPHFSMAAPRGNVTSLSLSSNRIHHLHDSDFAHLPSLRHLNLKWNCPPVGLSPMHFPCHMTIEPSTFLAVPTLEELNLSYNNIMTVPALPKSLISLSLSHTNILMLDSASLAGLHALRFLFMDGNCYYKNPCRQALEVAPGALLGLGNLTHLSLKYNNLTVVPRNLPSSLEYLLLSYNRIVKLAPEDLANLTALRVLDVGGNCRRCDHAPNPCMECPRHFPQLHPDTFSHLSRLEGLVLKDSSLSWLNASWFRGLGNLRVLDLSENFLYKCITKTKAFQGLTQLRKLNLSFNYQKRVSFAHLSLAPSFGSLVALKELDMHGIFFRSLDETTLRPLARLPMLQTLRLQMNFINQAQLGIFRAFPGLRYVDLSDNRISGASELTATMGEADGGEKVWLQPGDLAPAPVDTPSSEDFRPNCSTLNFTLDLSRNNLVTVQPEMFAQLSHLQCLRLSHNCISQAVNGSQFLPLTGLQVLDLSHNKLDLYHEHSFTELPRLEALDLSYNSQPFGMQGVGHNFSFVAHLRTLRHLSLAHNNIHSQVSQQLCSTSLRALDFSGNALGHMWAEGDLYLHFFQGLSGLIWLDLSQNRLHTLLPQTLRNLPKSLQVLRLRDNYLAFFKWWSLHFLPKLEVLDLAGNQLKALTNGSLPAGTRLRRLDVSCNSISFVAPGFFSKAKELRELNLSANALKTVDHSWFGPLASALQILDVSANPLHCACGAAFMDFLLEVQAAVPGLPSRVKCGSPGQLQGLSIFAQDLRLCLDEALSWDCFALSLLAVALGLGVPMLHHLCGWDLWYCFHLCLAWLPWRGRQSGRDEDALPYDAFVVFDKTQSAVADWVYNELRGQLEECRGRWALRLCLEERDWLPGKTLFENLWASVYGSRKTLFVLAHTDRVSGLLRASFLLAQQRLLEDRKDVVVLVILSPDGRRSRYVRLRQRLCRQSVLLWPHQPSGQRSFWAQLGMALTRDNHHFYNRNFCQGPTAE
Assay: TLR9 inhibition reporter assay (HEK-Blue cells, SEAP reporter, ODN2006 stimulation)
Type: cell-based
Conditions: HEK-Blue cells overexpressing human TLR9, SEAP reporter, ODN2006 5 nM
Procedure: as §1, §2

| Compound | IC50 |
| --- | --- |
| COCC(C)N[C@H]1CC[C@H](NC(=O)c2n[nH]c(-c3cc(C)c4ncnn4c3)c2C(C)C)CC1 (stereo partly drawn) [Example 146] | 16300 nM |
| Cc1cc(-c2[nH]nc(-c3ccncc3)c2C(C)C)cn2ncnc12 [Example 223] | 14300 nM |
| Cc1cc(-c2[nH]nc(C(=O)N[C@H]3CCCN(C)C3)c2C(C)C)cn2ncnc12 [Example 162] | 20300 nM |
| Cc1cc(-c2[nH]nc(C(=O)NC3CCN(CC4CCOCC4)CC3)c2CC(F)(F)F)cn2ncnc12 [Example 204] | 17800 nM |
| Cc1cc(-c2[nH]nc(C(=O)NC3CCC(NCC(C)(C)C)CC3)c2C(C)C)cn2ncnc12 (stereo not drawn) [Example 126] | 13200 nM |
| Cc1cc(-c2[nH]nc(C(=O)N3CC4CNCC4C3)c2C(C)C)cn2ncnc12 (stereo not drawn) [Example 59] | > 50000 nM |
| Cc1cc(-c2[nH]nc(-c3ncc4c(n3)CCNC4)c2C(C)C)cn2ncnc12 [Example 222] | 30400 nM |
| COc1cc(-c2[nH]nc(-c3nc4c(s3)CNCC4)c2C(C)C)cn2ncnc12 [Example 220] | > 50000 nM |

The remaining lines, values ahead:

| IC50 | Compound |
| --- | --- |
| 18800 nM | COc1cc(-c2[nH]nc(-c3ccc(C4CN(C)C4)cc3)c2C(C)C)cn2ncnc12 [Example 328] |
| > 50000 nM | CCN1CC(c2ccc(-c3n[nH]c(-c4cc(C)c5ncnn5c4)c3C(C)C)cc2)C1 [Example 325] |
| 15800 nM | COc1cc(-c2[nH]nc(-c3ccc(C4CCNCC4)cc3)c2C(C)C)cn2ncnc12 [compound 308] |
| 18300 nM | COc1cc(-c2[nH]nc(-c3nc4c(s3)CN(C)CC4)c2C(C)C)cn2ncnc12 [Example 262] |

Biological target: T3, human TLR8 (Homo sapiens, UniProt Q9NR97)
T3 construct: host or cells: HEK-Blue cells
T3 sequence (Q9NR97 27-1041): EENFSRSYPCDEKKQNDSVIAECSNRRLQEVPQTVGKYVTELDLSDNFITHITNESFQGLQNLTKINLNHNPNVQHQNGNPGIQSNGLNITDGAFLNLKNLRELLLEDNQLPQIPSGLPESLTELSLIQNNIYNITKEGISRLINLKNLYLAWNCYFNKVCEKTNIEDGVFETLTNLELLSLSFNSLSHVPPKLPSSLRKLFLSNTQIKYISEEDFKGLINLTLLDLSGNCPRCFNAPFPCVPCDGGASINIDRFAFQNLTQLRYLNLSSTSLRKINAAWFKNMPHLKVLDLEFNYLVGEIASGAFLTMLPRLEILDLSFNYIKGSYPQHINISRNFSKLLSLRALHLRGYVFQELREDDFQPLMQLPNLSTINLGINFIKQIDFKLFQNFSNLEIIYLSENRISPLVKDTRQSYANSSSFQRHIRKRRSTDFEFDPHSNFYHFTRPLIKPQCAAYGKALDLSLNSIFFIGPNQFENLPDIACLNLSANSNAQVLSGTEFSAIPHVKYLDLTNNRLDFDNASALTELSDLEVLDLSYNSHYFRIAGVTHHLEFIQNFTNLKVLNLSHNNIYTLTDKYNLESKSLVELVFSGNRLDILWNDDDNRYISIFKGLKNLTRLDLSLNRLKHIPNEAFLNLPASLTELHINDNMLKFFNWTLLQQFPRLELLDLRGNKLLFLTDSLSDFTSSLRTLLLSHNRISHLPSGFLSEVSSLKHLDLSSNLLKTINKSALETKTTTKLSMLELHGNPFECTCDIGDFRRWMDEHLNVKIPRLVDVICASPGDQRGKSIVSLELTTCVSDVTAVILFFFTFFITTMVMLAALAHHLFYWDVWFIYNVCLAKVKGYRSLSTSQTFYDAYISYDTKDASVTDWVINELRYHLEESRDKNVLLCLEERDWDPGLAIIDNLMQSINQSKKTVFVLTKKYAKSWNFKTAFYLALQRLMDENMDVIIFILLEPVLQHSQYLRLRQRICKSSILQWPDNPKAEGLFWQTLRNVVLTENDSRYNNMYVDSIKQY
Assay: TLR8 inhibition reporter assay (HEK-Blue cells, SEAP reporter, R848 stimulation)
Type: cell-based
Conditions: HEK-Blue cells overexpressing human TLR8, SEAP reporter, R848 15.9 μM
Procedure: as §1, §2

| Compound | IC50 |
| --- | --- |
| COCC(C)N[C@H]1CC[C@H](NC(=O)c2n[nH]c(-c3cc(C)c4ncnn4c3)c2C(C)C)CC1 (stereo partly drawn) [Example 146] | 0.92 nM |
| Cc1cc(-c2[nH]nc(-c3ccncc3)c2C(C)C)cn2ncnc12 [Example 223] | 10.3 nM |
| Cc1cc(-c2[nH]nc(C(=O)N[C@H]3CCCN(C)C3)c2C(C)C)cn2ncnc12 [Example 162] | 15.7 nM |
| Cc1cc(-c2[nH]nc(C(=O)NC3CCN(CC4CCOCC4)CC3)c2CC(F)(F)F)cn2ncnc12 [Example 204] | 0.63 nM |
| Cc1cc(-c2[nH]nc(C(=O)NC3CCC(NCC(C)(C)C)CC3)c2C(C)C)cn2ncnc12 (stereo not drawn) [Example 126] | 6.83 nM |
| Cc1cc(-c2[nH]nc(C(=O)N3CC4CNCC4C3)c2C(C)C)cn2ncnc12 (stereo not drawn) [Example 59] | 47.2 nM |
| Cc1cc(-c2[nH]nc(-c3ncc4c(n3)CCNC4)c2C(C)C)cn2ncnc12 [Example 222] | 1.94 nM |
| COc1cc(-c2[nH]nc(-c3nc4c(s3)CNCC4)c2C(C)C)cn2ncnc12 [Example 220] | 4.38 nM |

Continued, values first:

| IC50 | Compound |
| --- | --- |
| 12.8 nM | COc1cc(-c2[nH]nc(-c3ccc(C4CN(C)C4)cc3)c2C(C)C)cn2ncnc12 [Example 328] |
| 0.19 nM | CCN1CC(c2ccc(-c3n[nH]c(-c4cc(C)c5ncnn5c4)c3C(C)C)cc2)C1 [Example 325] |
| 0.09 nM | COc1cc(-c2[nH]nc(-c3ccc(C4CCNCC4)cc3)c2C(C)C)cn2ncnc12 [compound 308] |
| 17.5 nM | COc1cc(-c2[nH]nc(-c3nc4c(s3)CN(C)CC4)c2C(C)C)cn2ncnc12 [Example 262] |
